One assay deals with fMet-Leu-Phe receptor (Homo sapiens, UniProt P21462). As to the kind of experiment: formyl peptide receptor binders – dose response (AID 519). The assay is classed as functional.
A short description of assay [1]: viability loss in THP-1 monocytes – THP-1 cells, cytotoxicity control for Vif-APOBEC3G degradation inhibitor project, dose response (AID 1117359). The assay is classed as functional. Conditions: THP-1.
A short description of assay [2]: viability loss in Vero cells – cytotoxicity control for Vif-APOBEC3G degradation inhibitor project, dose response (AID 1117358). It is filed as functional. As to conditions: Vero.
Assay [3] has as its target T1, Short transient receptor potential channel 4 (Mus musculus, UniProt Q9QUQ5).
T1 sequence (Q9QUQ5 whole entry): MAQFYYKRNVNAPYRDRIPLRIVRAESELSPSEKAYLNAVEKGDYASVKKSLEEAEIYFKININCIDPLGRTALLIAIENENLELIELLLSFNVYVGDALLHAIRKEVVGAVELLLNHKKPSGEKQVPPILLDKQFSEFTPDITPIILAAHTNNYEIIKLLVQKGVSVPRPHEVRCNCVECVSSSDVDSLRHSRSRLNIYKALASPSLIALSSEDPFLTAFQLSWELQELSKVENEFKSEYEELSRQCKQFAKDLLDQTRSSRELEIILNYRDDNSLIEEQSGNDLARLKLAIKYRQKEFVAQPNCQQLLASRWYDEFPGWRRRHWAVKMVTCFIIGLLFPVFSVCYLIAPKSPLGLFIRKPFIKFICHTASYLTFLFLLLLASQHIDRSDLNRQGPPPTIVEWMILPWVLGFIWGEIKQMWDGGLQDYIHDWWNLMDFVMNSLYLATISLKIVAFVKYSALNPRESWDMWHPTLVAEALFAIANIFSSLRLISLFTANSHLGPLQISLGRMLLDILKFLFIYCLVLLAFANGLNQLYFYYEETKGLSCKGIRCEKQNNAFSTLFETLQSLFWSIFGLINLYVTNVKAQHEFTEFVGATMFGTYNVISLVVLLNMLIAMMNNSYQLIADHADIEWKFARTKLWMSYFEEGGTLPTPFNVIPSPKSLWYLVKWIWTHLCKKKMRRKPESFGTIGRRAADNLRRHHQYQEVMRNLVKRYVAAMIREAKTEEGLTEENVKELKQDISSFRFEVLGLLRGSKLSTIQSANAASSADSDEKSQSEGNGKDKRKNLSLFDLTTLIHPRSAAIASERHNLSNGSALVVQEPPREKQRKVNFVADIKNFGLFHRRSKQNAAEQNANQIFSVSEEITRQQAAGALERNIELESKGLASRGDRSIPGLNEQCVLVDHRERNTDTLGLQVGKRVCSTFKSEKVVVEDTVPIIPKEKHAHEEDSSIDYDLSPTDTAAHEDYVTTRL
As to the kind of experiment: block of DAMGO-driven TRPC4 calcium entry – cell-based, HEK293 TRPC4/mu-opioid, Fluo-4 calcium, dose response (AID 434942).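 Further: potency of inhibitors blocking the TRPC4 calcium response.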 The assay is classed as functional.

For assay [4], the target named is Voltage-dependent T-type calcium channel subunit alpha-1H (Homo sapiens, UniProt O95180). The assay is classed as functional.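 Further: channel activity triggered by adding a high calcium stimulation buffer.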
In assay [5] the target is Sphingosine 1-phosphate receptor 2 (Homo sapiens, UniProt O95136). As to the kind of experiment: Dose Response Cell Based Assay for Agonists of the S1P2 Receptor. [Related pubchem assays: 729, 736, 843 ]. The assay is classed as functional.
For another assay, the system named is HEK293. In words: EBV LMP1 TES2 canonical NF-kB signalling blockers – cell-based, HEK293, luciferase, cherry-pick, dose response (AID 588343). The assay is classed as functional. As to conditions: Homo sapiens.
A further assay relates to INS1. In words: INS-1E survival protection against cytokine death – cell-based, luminescence, retest, dose response (AID 449756).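 Further: cell death triggered by IL-1 beta plus TNF-alpha plus IFN-gamma mixture; protective hits raise ATP signal compared with cytokine alone wells.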 The assay is classed as functional. As to conditions: Rattus norvegicus.
A further assay concerns Streptococcus. As to the kind of experiment: GAS UMAA2166 growth inhibition – luminescence, BacTiterGlo, counter-screen for streptokinase expression inhibitor project, dose response (AID 1915).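 Further: potency for reduction of bacterial viability or growth.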 It is filed as functional, organism-based.
In a further assay the target is T2, Streptokinase A (Streptococcus pyogenes serotype M1, UniProt P10520).
T2 sequence (P10520 whole entry): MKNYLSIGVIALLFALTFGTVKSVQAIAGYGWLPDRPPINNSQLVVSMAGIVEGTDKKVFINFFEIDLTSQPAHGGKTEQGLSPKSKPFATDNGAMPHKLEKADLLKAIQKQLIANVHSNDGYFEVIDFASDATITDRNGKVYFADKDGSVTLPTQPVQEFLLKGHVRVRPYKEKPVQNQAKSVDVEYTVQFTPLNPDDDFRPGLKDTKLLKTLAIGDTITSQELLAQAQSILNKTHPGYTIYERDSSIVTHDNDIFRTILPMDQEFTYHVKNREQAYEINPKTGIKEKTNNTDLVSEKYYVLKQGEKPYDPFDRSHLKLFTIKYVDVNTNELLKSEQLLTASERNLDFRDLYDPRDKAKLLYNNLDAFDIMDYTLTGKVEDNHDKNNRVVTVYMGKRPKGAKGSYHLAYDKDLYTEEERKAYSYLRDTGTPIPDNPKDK
In words: viability-normalized secreted streptokinase activity reduction – plasminogen activation absorbance, OD405, dose response (AID 1914).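 Further: secreted streptokinase activity via plasminogen activation per viability signal from cell pellet.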 The assay is classed as functional, Streptococcus pyogenes M1 GAS.

In assay [6] the test system is Streptococcus sp. 'group A'. In words: Streptococcus pyogenes SK(-)GAS viability under kanamycin – luminescence, BacTiterGlo, confirmation, counter-screen for streptokinase expression inhibitor project, dose response (AID 1900). The assay is classed as functional, organism-based.

The source made the active and inactive calls.

Chain of fMet-Leu-Phe receptor (P21462 whole entry): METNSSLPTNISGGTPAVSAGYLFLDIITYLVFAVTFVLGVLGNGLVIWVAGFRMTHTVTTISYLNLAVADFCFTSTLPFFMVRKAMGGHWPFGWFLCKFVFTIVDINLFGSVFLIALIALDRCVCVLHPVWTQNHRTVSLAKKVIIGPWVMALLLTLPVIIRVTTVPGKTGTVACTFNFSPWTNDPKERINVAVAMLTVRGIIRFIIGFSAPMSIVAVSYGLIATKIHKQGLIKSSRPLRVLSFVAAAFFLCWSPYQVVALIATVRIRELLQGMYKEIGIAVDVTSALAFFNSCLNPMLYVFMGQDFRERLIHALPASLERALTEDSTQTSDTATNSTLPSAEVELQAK
Chain of Voltage-dependent T-type calcium channel subunit alpha-1H (O95180 whole entry): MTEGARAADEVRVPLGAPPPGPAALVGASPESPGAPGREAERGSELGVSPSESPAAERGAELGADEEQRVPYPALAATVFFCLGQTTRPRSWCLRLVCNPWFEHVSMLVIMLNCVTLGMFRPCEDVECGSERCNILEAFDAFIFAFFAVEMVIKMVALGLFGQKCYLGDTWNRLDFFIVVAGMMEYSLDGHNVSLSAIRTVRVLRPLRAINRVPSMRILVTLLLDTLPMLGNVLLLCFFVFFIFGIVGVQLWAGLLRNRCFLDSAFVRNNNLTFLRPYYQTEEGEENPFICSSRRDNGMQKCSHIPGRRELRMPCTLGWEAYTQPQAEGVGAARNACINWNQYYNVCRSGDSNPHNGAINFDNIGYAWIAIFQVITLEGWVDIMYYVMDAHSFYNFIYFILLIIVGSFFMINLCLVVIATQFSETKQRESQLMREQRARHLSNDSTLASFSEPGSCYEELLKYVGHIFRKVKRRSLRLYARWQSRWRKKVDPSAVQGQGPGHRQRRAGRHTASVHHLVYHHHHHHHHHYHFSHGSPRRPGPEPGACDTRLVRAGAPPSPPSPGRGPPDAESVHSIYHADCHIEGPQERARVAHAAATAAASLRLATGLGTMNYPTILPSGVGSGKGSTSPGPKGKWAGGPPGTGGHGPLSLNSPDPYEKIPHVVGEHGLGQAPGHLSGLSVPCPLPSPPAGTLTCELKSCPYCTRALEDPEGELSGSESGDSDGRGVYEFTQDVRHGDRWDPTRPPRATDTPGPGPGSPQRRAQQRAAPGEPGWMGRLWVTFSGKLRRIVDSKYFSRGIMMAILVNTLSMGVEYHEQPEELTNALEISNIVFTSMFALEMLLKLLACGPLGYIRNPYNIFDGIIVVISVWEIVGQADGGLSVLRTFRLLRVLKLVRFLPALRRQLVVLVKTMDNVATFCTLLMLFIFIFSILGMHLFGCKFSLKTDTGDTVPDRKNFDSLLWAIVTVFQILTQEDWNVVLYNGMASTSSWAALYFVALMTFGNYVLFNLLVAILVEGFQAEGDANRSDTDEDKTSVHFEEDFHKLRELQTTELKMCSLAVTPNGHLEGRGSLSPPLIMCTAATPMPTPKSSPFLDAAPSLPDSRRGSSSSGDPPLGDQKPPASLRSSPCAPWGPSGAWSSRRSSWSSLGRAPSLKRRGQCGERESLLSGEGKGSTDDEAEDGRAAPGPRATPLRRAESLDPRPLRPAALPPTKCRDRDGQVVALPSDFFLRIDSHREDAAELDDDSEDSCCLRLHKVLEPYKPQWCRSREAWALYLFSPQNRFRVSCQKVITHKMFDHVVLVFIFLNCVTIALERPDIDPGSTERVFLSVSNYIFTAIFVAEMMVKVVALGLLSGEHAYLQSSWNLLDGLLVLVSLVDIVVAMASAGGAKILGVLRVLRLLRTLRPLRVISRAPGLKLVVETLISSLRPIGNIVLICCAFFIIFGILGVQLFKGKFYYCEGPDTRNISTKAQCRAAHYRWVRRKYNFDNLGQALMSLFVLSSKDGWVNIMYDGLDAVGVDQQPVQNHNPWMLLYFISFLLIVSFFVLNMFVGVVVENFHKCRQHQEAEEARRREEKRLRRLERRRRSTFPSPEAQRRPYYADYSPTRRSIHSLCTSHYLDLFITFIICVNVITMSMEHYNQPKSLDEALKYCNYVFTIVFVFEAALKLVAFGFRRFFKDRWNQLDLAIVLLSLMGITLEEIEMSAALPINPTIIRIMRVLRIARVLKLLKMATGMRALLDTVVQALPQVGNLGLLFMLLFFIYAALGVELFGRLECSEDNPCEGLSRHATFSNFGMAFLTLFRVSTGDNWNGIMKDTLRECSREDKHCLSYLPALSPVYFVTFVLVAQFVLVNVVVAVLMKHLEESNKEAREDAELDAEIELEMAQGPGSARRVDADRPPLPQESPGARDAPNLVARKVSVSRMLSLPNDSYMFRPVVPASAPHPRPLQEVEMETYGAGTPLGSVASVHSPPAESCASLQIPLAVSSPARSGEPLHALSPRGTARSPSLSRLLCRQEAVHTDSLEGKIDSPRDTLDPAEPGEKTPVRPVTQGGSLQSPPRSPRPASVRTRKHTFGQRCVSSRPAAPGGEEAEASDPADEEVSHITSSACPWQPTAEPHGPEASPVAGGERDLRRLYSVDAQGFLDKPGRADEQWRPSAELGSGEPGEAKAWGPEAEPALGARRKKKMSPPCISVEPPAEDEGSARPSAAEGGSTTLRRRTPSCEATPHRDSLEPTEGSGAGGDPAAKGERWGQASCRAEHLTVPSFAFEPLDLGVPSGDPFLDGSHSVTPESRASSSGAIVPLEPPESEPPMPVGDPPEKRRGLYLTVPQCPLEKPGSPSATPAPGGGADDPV
Chain of Sphingosine 1-phosphate receptor 2 (O95136 whole entry): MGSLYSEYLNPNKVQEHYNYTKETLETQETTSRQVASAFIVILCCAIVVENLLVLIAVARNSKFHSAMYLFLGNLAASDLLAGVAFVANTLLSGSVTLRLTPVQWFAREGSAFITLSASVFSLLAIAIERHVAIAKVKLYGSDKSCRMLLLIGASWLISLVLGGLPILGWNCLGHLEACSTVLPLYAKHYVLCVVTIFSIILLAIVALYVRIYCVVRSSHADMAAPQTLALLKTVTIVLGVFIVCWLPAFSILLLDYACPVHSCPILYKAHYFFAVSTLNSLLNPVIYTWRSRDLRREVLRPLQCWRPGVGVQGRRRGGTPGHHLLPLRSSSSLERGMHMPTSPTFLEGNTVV

Consider `O=C(NC1CCCC1)C1CC1c1ccccc1` (configuration not stated), for which the Ki (in general, the dissociation constant of the complex between target and ligand, obtained from inhibition or displacement) at fMet-Leu-Phe receptor is > 66.7 µM (inactive).

For `CCN(c1ccccc1)S(=O)(=O)c1ccc(C(=O)NNC(=O)c2ccccc2F)cc1`, in [1], the cytotoxic concentration (CC50) – broadly, the concentration at which the toxic effect on the cells reaches its halfway point – was 23.5 µM (active).

Regarding `COc1cc(CNCCc2ccc(F)cc2)ccc1OCc1ccc(Cl)nc1`, the CC50 in assay [2] is 26.1 µM (active). The EC50 (commonly the concentration at which the effect is half-maximal) in assay [3] was 1.88 µM (active).

`O=C(Cc1c[nH]c2ccccc12)Nc1nc2ccccc2[nH]1`: the EC50 in assay [4] is 6.91 µM (active); in assay [5] it was > 50 µM (not active).

Consider `Oc1c2c(nc3c(-c4ccc(Cl)cc4)cnn13)CCCC2`, for which the values for the half-maximal activity concentration (AC50) with HEK293 and with INS1 were 2.89 µM (active) and 2.37 µM (active), respectively. For the same molecule, the concentration giving a half-maximal response (EC50) is 9.5 µM (active) with Streptococcus, > 150 µM (not active) on Streptokinase A and 3.64 µM (active) in assay [6]. In addition, at fMet-Leu-Phe receptor, the Ki is > 66.7 µM (inactive).
